Data: ChEMBL document CHEMBL5154935, “Design, Synthesis, and Biological Evaluation of Novel Evodiamine Derivatives as Potential Antihepatocellular Carcinoma Agents” (J Med Chem, 2022)
Active and inactive are the calls of the source. No cut-off for these calls is given here.

What was measured:
[1] = tested on: Huh-7; test: Induction of apoptosis in human Huh-7 cells assessed as change in cell membrane permeability by measuring blue fluorescence incubated for 24 hrs by Hoechst staining based microscopy; assay type: functional; conditions: dose 12-60 nM, DDE = dose-dependent effect
[2] = tested on: SK-HEP1; test: Antiproliferative activity against human SK-HEP1 cells treated for 72 hrs by MTT assay; assay type: functional, cell-based; conditions: SK-HEP1, 72 h
[3] = tested on: Huh-7; test: Induction of apoptosis in human Huh-7 cells assessed as necrotic cells at 40 nM incubated for 24 hrs by annexin V-FITC/PI staining flow cytometry (reference value: 1.08 %); assay type: functional
[4] = tested on: Huh-7; test: Induction of apoptosis in human Huh-7 cells assessed as necrotic cells at 10 nM incubated for 24 hrs by annexin V-FITC/PI staining flow cytometry (reference value: 1.08 %); assay type: functional
[5] = tested on: SK-HEP1; test: Inhibition of cell migration in human SK-HEP1 cells incubated for 24 hrs by scratch wound healing assay; assay type: functional, cell-based; conditions: dose 3-18 nM, DDE = dose-dependent effect
[6] = Induction of apoptosis in rat HSC-T6 cells assessed as necrotic cells at 10 nM pretreated with TGFbeta-1 for 1 day followed by compound addition and measured after 24 hrs by flow cytometry (reference value: 0.56 %); assay type: functional
[7] = tested on: Huh-7; test: Induction of apoptosis in human Huh-7 cells assessed as viable cells at 40 nM incubated for 24 hrs by annexin V-FITC/PI staining flow cytometry (reference value: 97.3 %); assay type: functional; conditions: read-out: Activity
[8] = tested on: SK-HEP1; test: Induction of apoptosis in human SK-Hep1 cells assessed as cell shrinkage incubated for 24 hrs by Giemsa staining based microscopy; assay type: functional; conditions: dose 12-60 nM, DDE = dose-dependent effect
[9] = tested on: HSC-T6; test: Antiproliferative activity against TGF-beta-1-stimulated rat HSC-T6 cells assessed as suppression of cell proliferation at 0.70 to 60 uM preincubated with TGFbeta-1 for 1 day followed by compound addition and measured after 48 hrs; assay type: functional, cell-based; conditions: dose 0.7-60 µM
[10] = tested on: Huh-7; test: Antiproliferative activity against human Huh-7 cells treated for 72 hrs by MTT assay; assay type: functional, cell-based; conditions: Huh-7, 72 h
[11] = tested on: SMMC-7721; test: Antiproliferative activity against human SMMC-7721 cells treated for 72 hrs by MTT assay; assay type: functional, cell-based; conditions: SMMC-7721, 72 h
[12] = tested on: SK-HEP1; test: Antiproliferative activity against human SK-Hep1 cells assessed as inhibition of cell viability treated for 24 to 72 hrs by MTT assay; assay type: functional, cell-based; conditions: time 24-72 hrs, DDE = dose-dependent effect
[13] = tested on: SK-HEP1; test: Induction of apoptosis in human SK-Hep1 cells assessed as early apoptotic cells at 80 nM incubated for 24 hrs by annexin V-FITC/PI staining flow cytometry (reference value: 0.30 %); assay type: functional
[14] = tested on: Huh-7; test: Induction of apoptosis in human Huh-7 cells assessed as late apoptotic cells at 40 nM incubated for 24 hrs by annexin V-FITC/PI staining flow cytometry (reference value: 1.33 %); assay type: functional
[15] = Induction of apoptosis in rat HSC-T6 cells assessed as early apoptotic cells at 80 nM pretreated with TGFbeta-1 for 1 day followed by compound addition and measured after 24 hrs by flow cytometry (reference value: 0.17 %); assay type: functional
[16] = Induction of apoptosis in rat HSC-T6 cells assessed as early apoptotic cells at 40 nM pretreated with TGFbeta-1 for 1 day followed by compound addition and measured after 24 hrs by flow cytometry (reference value: 0.17 %); assay type: functional
[17] = tested on: SK-HEP1; test: Induction of cell cycle arrest in human SK-Hep1 cells assessed as accumulation at S phase at 10 nM treated for 24 hrs by PI staining based flow cytometry (reference value: 24.98 %); assay type: functional
[18] = tested on: Huh-7; test: Induction of cell cycle arrest in human Huh-7 cells assessed as accumulation at G2 phase at 10 nM treated for 24 hrs by PI staining based flow cytometry (reference value: 15.90 %); assay type: functional
[19] = tested on: SK-HEP1; test: Induction of cell cycle arrest in human SK-Hep1 cells assessed as accumulation at S phase at 40 nM treated for 24 hrs by PI staining based flow cytometry (reference value: 24.98 %); assay type: functional
[20] = tested on: SK-HEP1; test: Induction of cell cycle arrest in human SK-Hep1 cells assessed as accumulation at G1 phase at 40 nM treated for 24 hrs by PI staining based flow cytometry (reference value: 58.47 %); assay type: functional
[21] = tested on: SK-HEP1; test: Inhibition of cell migration in human SK-HEP1 cells at 3 to 18 nM incubated for 24 hrs by crystal violet staining based transwell assay; assay type: functional; conditions: dose 3-18 nM
[22] = tested on: SK-HEP1; test: Induction of apoptosis in human SK-Hep1 cells assessed as early apoptotic cells at 40 nM incubated for 24 hrs by annexin V-FITC/PI staining flow cytometry (reference value: 0.30 %); assay type: functional
[23] = tested on: SK-HEP1; test: Induction of cell cycle arrest in human SK-Hep1 cells assessed as accumulation at G1 phase at 80 nM treated for 24 hrs by PI staining based flow cytometry (reference value: 58.47 %); assay type: functional
[24] = tested on: Huh-7; test: Induction of cell cycle arrest in human Huh-7 cells assessed as accumulation at G1 phase at 80 nM treated for 24 hrs by PI staining based flow cytometry (reference value: 60.77 %); assay type: functional
[25] = tested on: Huh-7; test: Inhibition of cell invasion in human Huh-7 cells at 3 to 18 nM incubated for 24 hrs by matrigel based assay; assay type: functional; conditions: dose 3-18 nM
[26] = tested on: SK-HEP1; test: Induction of cell cycle arrest in human SK-Hep1 cells assessed as accumulation at G2 phase at 10 nM treated for 24 hrs by PI staining based flow cytometry (reference value: 16.55 %); assay type: functional
[27] = target: T1, DNA topoisomerase 1 (Homo sapiens) (UniProt P11387); test: Inhibition of Top1 (unknown origin) assessed as inhibition of relaxation of supercoiled pBR322 plasmid DNA at 50 uM incubated for 25 mins by ethidium bromide staining based agarose gel electrophoresis analysis relative to control
T1 sequence (whole entry): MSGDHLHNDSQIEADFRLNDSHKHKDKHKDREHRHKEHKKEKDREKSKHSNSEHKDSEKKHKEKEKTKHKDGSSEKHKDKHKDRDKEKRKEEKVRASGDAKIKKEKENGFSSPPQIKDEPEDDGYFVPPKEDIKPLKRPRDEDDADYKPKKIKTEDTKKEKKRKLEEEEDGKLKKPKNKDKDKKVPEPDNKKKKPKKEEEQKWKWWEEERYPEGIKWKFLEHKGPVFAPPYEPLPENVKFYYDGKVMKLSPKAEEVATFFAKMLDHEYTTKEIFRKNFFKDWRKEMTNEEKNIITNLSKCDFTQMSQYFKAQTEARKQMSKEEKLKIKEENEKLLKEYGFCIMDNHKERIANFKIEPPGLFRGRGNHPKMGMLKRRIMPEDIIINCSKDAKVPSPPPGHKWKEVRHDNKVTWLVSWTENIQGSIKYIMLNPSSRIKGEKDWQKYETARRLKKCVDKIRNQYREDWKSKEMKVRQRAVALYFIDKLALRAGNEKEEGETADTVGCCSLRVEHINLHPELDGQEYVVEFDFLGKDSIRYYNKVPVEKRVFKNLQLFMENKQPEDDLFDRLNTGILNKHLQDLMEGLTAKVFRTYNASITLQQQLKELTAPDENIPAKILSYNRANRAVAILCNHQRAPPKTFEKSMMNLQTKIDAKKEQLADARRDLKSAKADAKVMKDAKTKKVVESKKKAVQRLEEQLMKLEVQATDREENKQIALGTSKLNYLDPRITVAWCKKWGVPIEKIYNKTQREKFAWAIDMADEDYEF

| Structure (SMILES) | Activity [1] | IC50 [2] | Activity [3] | Activity [4] | inhibition [5] | Activity [6] | viability at 0.04 µM [7] | Activity [8] | Activity [9] | IC50 [10] | IC50 [11] | Activity [12] | Activity [13] | Activity [14] | Activity [15] | Activity [16] | Activity [17] | Activity [18] | Activity [19] | Activity [20] | other results |
| --- | --- | --- | --- | --- | --- | --- | --- | --- | --- | --- | --- | --- | --- | --- | --- | --- | --- | --- | --- | --- | --- |
| CC(=O)Oc1ccc2[nH]c3c(c2c1)CCN1C(=O)c2cc(F)cc(F)c2N(c2cccc(F)c2)C31 (centres undefined) | Dde | 0.06 µM | 10.1% | 1.51% | Dde | 0.93% | 62.9% | Dde | Active | 0.03 µM | 0.08 µM | Dde | 13.5% | 25.6% | 0.83% | 0.32% | 19.4% | 13.54% | 4.18% | 25.35% | inhibition [21]: Active; Activity [22]: 8.25%; Activity [23]: 19.76%; Activity [24]: 17.18%; inhibition [25]: Active; Activity [26]: 18.08%; inhibition [27]: 94% |
| O=C1c2cc(F)cc(F)c2N(c2cccc(F)c2)C2c3[nH]c4ccc(O)cc4c3CCN12 (centres undefined) | Dde | 0.07 µM | 4.51% | 1.53% | Dde | 0.8% | 79.5% | Dde | Active | 0.04 µM | 0.09 µM | Dde | 0.75% | 13.5% | 0.72% | 0.14% | 18.42% | 26.52% | 4.11% | 21.83% | inhibition [21]: Active; Activity [22]: 8.02%; Activity [23]: 11.58%; Activity [24]: 10.64%; inhibition [25]: Active; Activity [26]: 26.65%; inhibition [27]: 92.5% |
